According to US20250034159A1, “INHIBITORS OF EPIDERMAL GROWTH FACTOR RECEPTOR” (ORIC Pharmaceuticals, Inc., priority 2021, published 2025):
Where two headings read alike, the source gives them in different places.

Legend:
BaF3_EGFR LR/CS cells = experiment: Biological Activity Assay D: BaF3 cell proliferation assay, EGFR L858R/C797S mutant (BaF3 LR/CS); assay type: cell-based; settings: Ba/F3 EGFR, read-out: BaF3 LR/CS IC50
Ba/F3_EGFR WT cells = experiment: Biological Activity Assay D: BaF3 cell proliferation assay, EGFR wild-type (BaF3 WT); assay type: cell-based; settings: Ba/F3 EGFR, read-out: BaF3 WT IC50
[1] = molecular target: recombinant human EGFR L858R/C797S double mutant protein (Homo sapiens (Human), UniProt P00533, C797S/L858R); experiment: Biological Activity Assay B: biochemical assay against EGFR L858R/C797S protein (EGFR LR/CS)
recombinant human EGFR L858R/C797S double mutant protein, sequence (P00533 25-1210 C797S/L858R): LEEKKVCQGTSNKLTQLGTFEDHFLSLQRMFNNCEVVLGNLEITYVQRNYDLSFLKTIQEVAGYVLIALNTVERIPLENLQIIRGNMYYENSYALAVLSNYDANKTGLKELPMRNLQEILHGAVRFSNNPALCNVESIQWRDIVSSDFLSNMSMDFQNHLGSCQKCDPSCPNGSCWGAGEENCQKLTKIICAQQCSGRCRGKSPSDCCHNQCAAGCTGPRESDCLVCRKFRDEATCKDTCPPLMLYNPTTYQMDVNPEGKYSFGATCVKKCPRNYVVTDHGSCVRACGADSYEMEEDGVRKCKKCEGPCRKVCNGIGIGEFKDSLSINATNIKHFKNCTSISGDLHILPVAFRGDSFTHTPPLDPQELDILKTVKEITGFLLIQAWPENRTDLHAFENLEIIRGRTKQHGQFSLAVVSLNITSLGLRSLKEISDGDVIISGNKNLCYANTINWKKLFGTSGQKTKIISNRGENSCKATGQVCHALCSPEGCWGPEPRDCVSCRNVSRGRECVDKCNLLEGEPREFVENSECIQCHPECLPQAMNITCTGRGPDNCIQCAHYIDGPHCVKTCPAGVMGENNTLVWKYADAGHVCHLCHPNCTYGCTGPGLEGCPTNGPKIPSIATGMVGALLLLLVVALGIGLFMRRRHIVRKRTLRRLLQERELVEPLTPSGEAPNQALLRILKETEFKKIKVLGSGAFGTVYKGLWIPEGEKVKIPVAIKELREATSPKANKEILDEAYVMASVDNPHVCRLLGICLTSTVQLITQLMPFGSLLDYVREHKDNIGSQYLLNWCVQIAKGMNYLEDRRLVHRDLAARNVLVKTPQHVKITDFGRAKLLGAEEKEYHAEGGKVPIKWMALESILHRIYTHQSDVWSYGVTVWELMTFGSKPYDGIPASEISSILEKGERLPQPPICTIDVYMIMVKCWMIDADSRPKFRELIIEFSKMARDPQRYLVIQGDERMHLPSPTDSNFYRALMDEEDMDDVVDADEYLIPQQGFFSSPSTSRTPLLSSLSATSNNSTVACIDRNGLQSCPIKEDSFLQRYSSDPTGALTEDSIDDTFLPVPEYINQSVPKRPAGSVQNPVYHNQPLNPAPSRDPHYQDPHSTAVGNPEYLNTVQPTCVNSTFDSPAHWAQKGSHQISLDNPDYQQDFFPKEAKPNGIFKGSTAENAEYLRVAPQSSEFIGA
In short: (§1)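 Compounds were tested as 16-point serial dilutions (final DMSO 2.5%) with a Phosphosens peptide sensor/ATP working solution (40 uM/4 mM). The signal was read kinetically over 90 cycles at 120 s intervals. IC50s came from 4-parameter fits of per-well slopes.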

BaF3_EGFR d19/CS cells = experiment: Biological Activity Assay D: BaF3 cell proliferation assay, EGFR exon 19 deletion/C797S (BaF3 d19/CS); assay type: cell-based; settings: Ba/F3 EGFR, read-out: BaF3 d19/CS IC50
[2] = molecular target: recombinant human EGFR exon 19 deletion/C797S double mutant protein (Homo sapiens (Human), UniProt P00533, C797S/DEL746-750); experiment: Biological Activity Assay C: biochemical assay against EGFR exon 19 deletion/C797S protein (EGFR d19/CS)
recombinant human EGFR exon 19 deletion/C797S double mutant protein, sequence (P00533 other isoform, or with tags, fused parts or gaps C797S/del 1-668/del 746-750 limits assumed): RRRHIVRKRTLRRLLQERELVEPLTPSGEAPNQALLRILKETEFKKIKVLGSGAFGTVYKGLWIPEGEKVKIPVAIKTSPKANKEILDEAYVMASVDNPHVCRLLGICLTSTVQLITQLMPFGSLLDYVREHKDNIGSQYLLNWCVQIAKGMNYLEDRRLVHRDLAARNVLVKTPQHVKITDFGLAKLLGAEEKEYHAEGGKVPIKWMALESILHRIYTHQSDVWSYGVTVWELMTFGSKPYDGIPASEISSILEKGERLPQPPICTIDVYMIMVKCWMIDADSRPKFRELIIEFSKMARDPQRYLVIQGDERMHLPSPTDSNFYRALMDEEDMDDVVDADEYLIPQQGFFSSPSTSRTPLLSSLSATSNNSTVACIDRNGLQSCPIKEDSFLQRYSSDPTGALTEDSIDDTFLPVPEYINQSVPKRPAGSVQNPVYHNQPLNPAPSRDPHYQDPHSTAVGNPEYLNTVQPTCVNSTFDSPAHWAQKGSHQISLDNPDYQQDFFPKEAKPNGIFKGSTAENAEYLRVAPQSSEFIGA
In short: as §1

[3] = BaF3_EGFR LR/CS cells, ~72 hours, CellTiter-Glo
[4] = Ba/F3_EGFR WT cells, ~72 hours, CellTiter-Glo
[5] = BaF3_EGFR d19/CS cells, ~72 hours, CellTiter-Glo

Compound | IC50 (BaF3_EGFR LR/CS cells; [3]) [µM] | IC50 (Ba/F3_EGFR WT cells; [4]) [µM] | IC50 [1] [µM] | IC50 (BaF3_EGFR d19/CS cells; [5]) [µM] | IC50 [2] [µM] | IC50 (BaF3_EGFR LR/CS cells; 72 h) [µM] | IC50 (Ba/F3_EGFR WT cells; 72 h) [µM] | IC50 (BaF3_EGFR d19/CS cells; 72 h) [µM]
O=S1(=O)CCCC(n2cc(-c3ncnc4oc(-c5ccccc5)cc34)c(-c3ccc(F)cc3)n2)C1 (stereo not shown) [Example 84, 3-[3-(4-fluorophenyl)-4-(6-phenylfuro[2,3-d]pyrimidin-4-yl)-1H-pyrazol-1-yl]-1λ6-thiane-1,1-dione] | 0.566 | > 20 | 0.00621 | 0.779 | 0.0108 | – | – | –
CC(=O)N1CC(n2cc(-c3ncnc4oc(-c5ccccc5)cc34)c(-c3ccc(F)cc3)n2)C1 [Example 86, 1-{3-[3-(4-fluorophenyl)-4-(6-phenylfuro[2,3-d]pyrimidin-4-yl)-1H-pyrazol-1-yl]azetidin-1-yl}ethan-1-one] | 0.39 | 7.38 | 0.00625 | 0.429 | 0.00667 | – | – | –
CS(=O)(=O)CCn1nc(-c2ccc(F)cc2)c(-c2ncnc3oc(-c4ccccc4)cc23)n1 [Example 87, 4-{5-(4-fluorophenyl)-2-[2-(methanesulfonyl)ethyl]-2H-1,2,3-triazol-4-yl}-6-phenylfuro[2,3-d]pyrimidine] | 0.14 | 2.81 | 0.00156 | 0.196 | 0.00134 | – | – | –
CC(C)(O)Cn1nc(-c2ccc(F)cc2)c(-c2ncnc3oc(-c4ccccc4)cc23)n1 [Example 88, 1-[4-(4-fluorophenyl)-5-(6-phenylfuro[2,3-d]pyrimidin-4-yl)-2H-1,2,3-triazol-2-yl]-2-methylpropan-2-ol] | 0.301 | 3.74 | 0.00122 | 0.238 | 0.00064 | – | – | –
CC(=O)N1CCC(n2cc(-c3ncnc4oc(-c5ccccc5)cc34)c(-c3ccc(F)cc3)n2)C1 (stereo not shown) [Example 92, 1-{3-[3-(4-fluorophenyl)-4-(6-phenylfuro[2,3-d]pyrimidin-4-yl)-1H-pyrazol-1-yl]pyrrolidin-1-yl}ethan-1-one] | 0.231 | 6.22 | 0.00095 | 0.255 | 0.00084 | – | – | –
COC(C)(C)Cn1cc(-c2ncnc3oc(-c4ccccc4)cc23)c(-c2ccc(F)cc2)n1 [Example 93, 4-[3-(4-fluorophenyl)-1-(2-methoxy-2-methylpropyl)-1H-pyrazol-4-yl]-6-phenylfuro[2,3-d]pyrimidine] | 0.184 | 4.29 | 0.00091 | 0.45 | 0.00073 | – | – | –
OCCn1cc(-c2ncnc3oc(-c4ccccc4)cc23)c(-c2ccc(F)cc2)n1 [Example 94, 2-[3-(4-Fluorophenyl)-4-(6-phenylfuro[2,3-d]pyrimidin-4-yl)-1H-pyrazol-1-yl]ethan-1-ol] | – | – | 0.00017 | – | 0.00011 | 0.0224 | 1.12 | 0.0274
CC(C)(O)Cn1cc(-c2ncnc3oc(-c4ccccc4)cc23)c(-c2cccc(F)c2)n1 [Example 95, 1-[3-(3-Fluorophenyl)-4-(6-phenylfuro[2,3-d]pyrimidin-4-yl)-1H-pyrazol-1-yl]-2-methylpropan-2-ol] | 0.116 | 2.09 | 0.00075 | 0.0952 | 0.00032 | – | – | –
O=S1(=O)CC(Cn2cc(-c3ncnc4oc(-c5ccccc5)cc34)c(-c3ccc(F)cc3)n2)C1 [Example 98, 3-{[3-(4-fluorophenyl)-4-(6-phenylfuro[2,3-d]pyrimidin-4-yl)-1H-pyrazol-1-yl]methyl}-1λ6-thietane-1,1-dione] | 0.161 | 1.86 | 0.00082 | 0.212 | 0.00127 | – | – | –
CS(=O)(=O)NCCn1cc(-c2ncnc3oc(-c4ccccc4)cc23)c(-c2ccc(F)cc2)n1 [Example 103, N-{2-[3-(4-Fluorophenyl)-4-(6-phenylfuro[2,3-d]pyrimidin-4-yl)-1H-pyrazol-1-yl]ethyl}methanesulfonamide] | 0.00835 | 0.229 | 0.00016 | 0.0175 | 0.00013 | – | – | –
O=S1(=O)CC(n2nc(-c3ccc(F)cc3)c(-c3ncnc4oc(-c5ccccc5)cc34)n2)C1 [Example 104, 3-[4-(4-Fluorophenyl)-5-(6-phenylfuro[2,3-d]pyrimidin-4-yl)-2H-1,2,3-triazol-2-yl]-1λ6-thietane-1,1-dione] | 0.174 | 10.6 | 0.00167 | 0.098 | 0.00046 | – | – | –
O=S1(=O)CCC(Cn2cc(-c3ncnc4oc(-c5ccccc5)cc34)c(-c3ccc(F)cc3)n2)CC1 [Example 105, 4-{[3-(4-fluorophenyl)-4-(6-phenylfuro[2,3-d]pyrimidin-4-yl)-1H-pyrazol-1-yl]methyl}-1λ6-thiane-1,1-dione] | 0.136 | 1.7 | 0.00075 | 0.152 | 0.00169 | – | – | –
NC(=O)Cn1cc(-c2ncnc3oc(-c4ccccc4)cc23)c(-c2ccc(F)cc2)n1 [Example 106, 2-[3-(4-Fluorophenyl)-4-(6-phenylfuro[2,3-d]pyrimidin-4-yl)-1H-pyrazol-1-yl]acetamide] | 0.0557 | 1.02 | 0.00045 | 0.0647 | 0.00038 | – | – | –
Fc1ccc(-c2nn(C(F)F)cc2-c2ncnc3oc(-c4ccccc4)cc23)cc1 [Example 107, 4-[1-(difluoromethyl)-3-(4-fluorophenyl)-1H-pyrazol-4-yl]-6-phenylfuro[2,3-d]pyrimidine] | 0.61 | 3.37 | 0.00983 | 0.314 | 0.00694 | – | – | –
CC(=O)N1CC=C(c2cc3c(-c4cn(C5CS(=O)(=O)C5)nc4-c4ccc(F)cc4)ncnc3o2)CC1 [Example 108, 3-{4-[6-(1-Acetyl-1,2,3,6-tetrahydropyridin-4-yl)furo[2,3-d]pyrimidin-4-yl]-3-(4-fluorophenyl)-1H-pyrazol-1-yl}-1λ6-thietane-1,1-dione] | 0.13 | 1.53 | 0.00159 | 0.105 | 0.00045 | – | – | –
CC(C)(O)Cn1cc(-c2ncnc3oc(-c4ccccc4)cc23)c(-c2ccccc2F)n1 [Example 109, 1-[3-(2-Fluorophenyl)-4-(6-phenylfuro[2,3-d]pyrimidin-4-yl)-1H-pyrazol-1-yl]-2-methylpropan-2-ol] | 0.0157 | 0.667 | 0.0004 | 0.0236 | 0.00018 | – | – | –
CC(C)(O)Cn1cc(-c2ncnc3oc(-c4ccccc4)cc23)c(-c2ccccc2)n1 [Example 110, 2-Methyl-1-[3-phenyl-4-(6-phenylfuro[2,3-d]pyrimidin-4-yl)-1H-pyrazol-1-yl]propan-2-ol] | 0.0687 | 1.38 | 0.00069 | 0.0831 | 0.00033 | – | – | –
NS(=O)(=O)CCn1cc(-c2ncnc3oc(-c4ccccc4)cc23)c(-c2ccc(F)cc2)n1 [Example 111, 2-[3-(4-Fluorophenyl)-4-(6-phenylfuro[2,3-d]pyrimidin-4-yl)-1H-pyrazol-1-yl]ethane-1-sulfonamide] | 0.0537 | 1.14 | 0.00045 | 0.114 | 0.00041 | – | – | –
O=S1(=O)CC(Cn2ncc(-c3ncnc4oc(-c5ccccc5)cc34)c2-c2ccc(F)cc2)C1 [Example 112, 3-((5-(4-fluorophenyl)-4-(6-phenylfuro[2,3-d]pyrimidin-4-yl)-1H-pyrazol-1-yl)methyl)thietane 1,1-dioxide] | 0.741 | 7.15 | 0.0129 | 1.15 | 0.0125 | – | – | –
COC1(CCn2cc(-c3ncnc4oc(-c5ccccc5)cc34)c(-c3ccc(F)cc3)n2)COC1 [Example 113, 4-{3-(4-fluorophenyl)-1-[2-(3-methoxyoxetan-3-yl)ethyl]-1H-pyrazol-4-yl}-6-phenylfuro[2,3-d]pyrimidine] | 0.256 | 2.19 | 0.00127 | 0.315 | 0.00149 | – | – | –
CS(=O)(=O)N1CC(n2cc(-c3ncnc4oc(-c5ccccc5)cc34)c(-c3ccc(F)cc3)n2)C1 [Example 114, 4-{3-(4-fluorophenyl)-1-[1-(methanesulfonyl)azetidin-3-yl]-1H-pyrazol-4-yl}-6-phenylfuro[2,3-d]pyrimidine] | 0.132 | 3.32 | 0.00162 | 0.137 | 0.00055 | – | – | –
N#CCCCn1cc(-c2ncnc3oc(-c4ccccc4)cc23)c(-c2ccc(F)cc2)n1 [Example 116, 4-[3-(4-Fluorophenyl)-4-(6-phenylfuro[2,3-d]pyrimidin-4-yl)-1H-pyrazol-1-yl]butanenitrile] | – | – | 0.00037 | – | 0.00023 | 0.0229 | 1.51 | 0.0476
CNC(=O)CCn1cc(-c2ncnc3oc(-c4ccccc4)cc23)c(-c2ccc(F)cc2)n1 [Example 117, 3-[3-(4-fluorophenyl)-4-(6-phenylfuro[2,3-d]pyrimidin-4-yl)-1H-pyrazol-1-yl]-N-methylpropanamide] | 0.103 | 1.27 | 0.00047 | 0.0937 | 0.00027 | – | – | –
